The text below walks through data of US11786528B2, “Pyrazolopyrimidine compounds as adenosine receptor antagonists” (EXSCIENTIA LTD., priority 2018, dated 2023).

What is called IC50 is the concentration at which inhibition is half-maximal. Higher therefore signals a need for much substance. The term EC50 denotes the concentration at which the effect is half-maximal. Read a high EC50 as lower potency in that assay. By solubility is commonly meant how much of the substance goes into solution per volume.

Values after ≈ are worked out from the molar mass of the structure shown. A value given as a limit tells only on which side of the number the result lay.

Data set [1] addresses human adenosine receptor sub-type A2a (wild type) (Homo sapiens (Human), UniProt P29274). Put plainly: Affinity for human adenosine A2a receptor by surface plasmon resonance (SPR). It is filed as binding. The procedure: (§1) Affinity for the human adenosine receptor sub-types (A2a, A2b, A1 and A3) was determined by surface plasmon resonance (SPR) using published methodologies (see below for further details).
(§2) Affinity for the human adenosine receptor sub-types (A2a, A2b, A1 and A3) was determined by SPR as described in Aristotelous, T., et al, Methods in Enzymology (2015), Volume 556, Chapter 23, pages 499-525 and Congreve, M., et al, J Med Chem (2012), Vol. 55, pages 1898-1903. The method used was analogous to the method used in Congreve, M., et al (see supplementary page S10) for the A2a receptor, but the wild type receptor was used rather than the proprietary StaR form.

In data set [2] the target is human A2a receptors (HEK 293 transfected) (Homo sapiens (Human), UniProt P29274). In words: Inhibition of cAMP release in HEK-A2aR cells (HTRF, LANCE Ultra cAMP). It counts as cell-based. Conditions: 3 nM NECA, 10 min. The protocol: Functional activity was measured by inhibition of cAMP release in HEK cells (see below for further details).
Sequence of human A2a receptors (HEK 293 transfected) (P29274 whole entry): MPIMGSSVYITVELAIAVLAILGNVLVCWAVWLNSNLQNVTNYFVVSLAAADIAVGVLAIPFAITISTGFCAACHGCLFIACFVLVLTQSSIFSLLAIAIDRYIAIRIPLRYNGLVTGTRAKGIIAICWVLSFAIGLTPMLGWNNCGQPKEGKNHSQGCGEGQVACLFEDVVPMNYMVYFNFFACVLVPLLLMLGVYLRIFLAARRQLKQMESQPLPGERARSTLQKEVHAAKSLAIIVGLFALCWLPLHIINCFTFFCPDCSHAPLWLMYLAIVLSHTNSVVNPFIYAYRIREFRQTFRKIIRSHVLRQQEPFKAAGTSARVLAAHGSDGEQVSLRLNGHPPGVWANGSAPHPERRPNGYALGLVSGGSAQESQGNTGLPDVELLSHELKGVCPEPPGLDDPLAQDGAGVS
To screen A2a receptor inhibitors by HTRF technology, about 500 HEK-A2aR cells (HEK 293 transfected with human A2a receptors) were treated with inhibitors in presence of stimulation buffer (1×HBSS, 5 mM HEPES, 0.1% BSA stabilizer, pH 7.4) supplemented with 30 μM phosphodiesterase inhibitor Rolipram (to prevent cAMP degradation). This stimulation was immediately followed by treatment with 3 nM standard A2aR agonist (NECA) for 10 min under gentle shaking at room temperature. After that, inhibition of cAMP release was determined directly using LANCE Ultra cAMP assay (Perkin Elmer TRF0263).
All analysis was performed using GraphPad Prism 7.0 (GraphPad Software, San Diego, USA). Results are given, as EC50 (M).
A general note: Time-resolved FRET reads energy transfer from a long-lived donor to a nearby acceptor.

Data set [3] addresses human adenosine receptor sub-type A2b (Homo sapiens (Human), UniProt P29275). In words: Affinity for human adenosine A2b receptor by SPR. It is filed as binding. The following applies: for IC50: SPR, human A2b receptor; for Relative selectivity for A2a v. A2b: from SPR IC50 values, rounded to 2 significant figures. The protocol: as §1, §2
Data set [4] has as its target human adenosine receptor sub-type A1 (Homo sapiens (Human), UniProt P30542). Put plainly: Affinity for human adenosine A1 receptor by SPR. It counts as binding. The following applies: for IC50: SPR, human A1 receptor; for Relative selectivity for A2a v. A1: from SPR IC50 values, rounded to 2 significant figures. The protocol: as §1, §2
(In general: Surface plasmon resonance follows binding to a sensor surface in real time, without labels.)

The target in data set [5] is human adenosine receptor sub-type A3 (Homo sapiens (Human), UniProt P0DMS8). Put plainly: Affinity for human adenosine A3 receptor by SPR. The following applies: for Relative selectivity for A2a v. A3: from SPR IC50 values, rounded to 2 significant figures. It counts as binding. The procedure: as §1, §2
Sequence of human adenosine receptor sub-type A3 (P0DMS8 whole entry): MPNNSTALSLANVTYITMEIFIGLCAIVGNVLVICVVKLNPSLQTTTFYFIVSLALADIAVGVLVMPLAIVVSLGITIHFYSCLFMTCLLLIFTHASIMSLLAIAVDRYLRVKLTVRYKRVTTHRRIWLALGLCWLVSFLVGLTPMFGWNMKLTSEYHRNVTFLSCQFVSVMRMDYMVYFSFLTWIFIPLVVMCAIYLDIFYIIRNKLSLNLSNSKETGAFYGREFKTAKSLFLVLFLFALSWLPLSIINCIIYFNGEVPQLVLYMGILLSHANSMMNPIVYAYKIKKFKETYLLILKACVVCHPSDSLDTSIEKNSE
The nature of data set [6]: Solubility. It counts as physicochemical. The following applies: water (or specific buffer), thermodynamic from solid, overnight stirring at ambient temperature, LC-UV. From the text: The test compound in solid form was suspended in water (or specific buffer). After overnight stirring at ambient temperature protected from light, suspensions were filtered. An aliquot of the resulting supernatant was quantified using LC-UV method against a reference solution in DMSO obtained by preparation from powder.

Sequence of human adenosine receptor sub-type A2b (P29275 whole entry): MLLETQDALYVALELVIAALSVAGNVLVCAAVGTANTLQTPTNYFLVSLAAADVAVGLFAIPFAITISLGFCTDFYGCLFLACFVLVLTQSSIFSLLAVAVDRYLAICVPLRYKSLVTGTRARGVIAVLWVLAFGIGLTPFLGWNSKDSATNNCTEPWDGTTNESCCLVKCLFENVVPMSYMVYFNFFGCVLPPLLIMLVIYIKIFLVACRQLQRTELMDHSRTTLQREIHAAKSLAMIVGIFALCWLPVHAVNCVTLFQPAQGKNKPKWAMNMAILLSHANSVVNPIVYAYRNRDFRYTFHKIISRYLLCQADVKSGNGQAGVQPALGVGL
Sequence of human adenosine receptor sub-type A1 (P30542 whole entry): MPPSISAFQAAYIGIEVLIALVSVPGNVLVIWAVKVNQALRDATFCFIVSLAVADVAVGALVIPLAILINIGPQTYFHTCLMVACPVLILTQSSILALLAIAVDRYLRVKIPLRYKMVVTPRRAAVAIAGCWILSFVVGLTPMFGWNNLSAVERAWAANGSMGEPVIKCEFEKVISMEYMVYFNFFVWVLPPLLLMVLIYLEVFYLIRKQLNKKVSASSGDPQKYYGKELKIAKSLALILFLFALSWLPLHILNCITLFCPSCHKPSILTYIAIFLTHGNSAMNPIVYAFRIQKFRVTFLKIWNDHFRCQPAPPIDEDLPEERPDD
Sequence of human adenosine receptor sub-type A2a (wild type) (P29274 whole entry): as the sequence (P29274 whole entry) above

Take `COc1ccccc1Cn1cc2c(N)nc(-c3ccc(C)o3)nc2n1` [Comparative Example 1, reference compound]: the IC50 in data set [1] amounted to 2.2 nM; in data set [3] it was 4910 nM; in data set [4], 114 nM; in data set [5] (SPR, human A3 receptor), 1.97 µM. The same compound displayed an EC50 in data set [2] of 18 nM. Moreover, in data set [3], the “Relative selectivity for A2a v. A2b” value turned out to be 2200. For the same compound, in data set [4], the “Relative selectivity for A2a v. A1” value was 51. Besides, the “Relative selectivity for A2a v. A3” value in data set [5] is listed as 900. The solubility in data set [6] turned out to be 1 µg/mL (≈ 2.98 µM).
`COc1cccc(Cn2cc3c(N)nc(-c4nccs4)nc3n2)c1` [Example 8, 2-[(3-methoxyphenyl)methyl]-6-(1,3-thiazol-2-yl)-2H-pyrazolo[3,4-d]pyrimidin-4-amine] registered an IC50 in data set [1] of 11 nM. Moreover, the EC50 in data set [2] worked out at 23 nM. Further, the solubility in data set [6] is greater than 10 µg/mL.
As for `COc1cccc(Cn2cc3c(N)nc(-c4ccsn4)nc3n2)c1` [Example 10, 2-[(3-methoxyphenyl)methyl]-6-(1,2-thiazol-3-yl)-2H-pyrazolo[3,4-d]pyrimidin-4-amine], the IC50 in data set [1] stood at 5.1 nM; in data set [3], 690 nM; in data set [4], 680 nM; in data set [5] (SPR, human A3 receptor), 60 µM. This compound also had an EC50 in data set [2] of 235 nM. In data set [3], the “Relative selectivity for A2a v. A2b” value was found to be 140. The “Relative selectivity for A2a v. A1” value in data set [4] was 130. The “Relative selectivity for A2a v. A3” value in data set [5] is 12000.
Take `COc1cccc(Cn2cc3c(N)nc(-c4cnco4)nc3n2)c1` [Example 11, 2-[(3-methoxyphenyl)methyl]-6-(1,3-oxazol-5-yl)-2H-pyrazolo[3,4-d]pyrimidin-4-amine]: the IC50 came to 4.9 nM in data set [1]; 580 nM in data set [3]; 350 nM in data set [4]; 21 µM in data set [5] (SPR, human A3 receptor). Further, the EC50 in data set [2] worked out at 70 nM. Besides, the “Relative selectivity for A2a v. A2b” value in data set [3] was found to be 120. Further, the “Relative selectivity for A2a v. A1” value in data set [4] was 71. Besides, the “Relative selectivity for A2a v. A3” value in data set [5] stood at 4300. The compound also returned a solubility in data set [6] greater than 10 µg/mL.
On to `Cc1ccc(Cn2cc3c(N)nc(-c4cnccn4)nc3n2)cc1` [Example 12, 2-[(4-methylphenyl)methyl]-6-(pyrazin-2-yl)-2H-pyrazolo[3,4-d]pyrimidin-4-amine], for which the IC50 in data set [1] came to 7.9 nM; in data set [3], 9000 nM; in data set [4], 7300 nM; in data set [5] (SPR, human A3 receptor) it was 38.8 µM. In data set [2], a half-maximal response (EC50) required 199 nM. The “Relative selectivity for A2a v. A2b” value in data set [3] is given as 1100. Also, in data set [4], the “Relative selectivity for A2a v. A1” value is recorded as 920. Moreover, the “Relative selectivity for A2a v. A3” value in data set [5] was 4900.
With `Cc1ccc(Cn2cc3c(N)nc(-c4ccsn4)nc3n2)cc1F` [Example 19, 2-[(3-fluoro-4-methylphenyl)methyl]-6-(1,2-thiazol-3-yl)-2H-pyrazolo[3,4-d]pyrimidin-4-amine], in data set [1], the IC50 was determined as 5.6 nM. Besides, in data set [2], the EC50 is 84 nM. In data set [3], the midpoint of inhibition, the IC50, lay at 1450 nM and the “Relative selectivity for A2a v. A2b” value was 260. In data set [4], the IC50 is 1180 nM and the “Relative selectivity for A2a v. A1” value is 210. For the same compound, the “A3 SPR IC50” value in data set [5] (SPR, human A3 receptor) is on record as “Non-”. The “Relative selectivity for A2a v. A3” value in data set [5] is given as greater than 10000. In data set [6], this compound yielded a solubility greater than 5 µg/mL.
As for `Cc1ccc(Cn2cc3c(N)nc(-c4ccsn4)nc3n2)cc1C(F)(F)F` [Example 24, 2-{[4-methyl-3-(trifluoromethyl)phenyl]methyl}-6-(1,2-thiazol-3-yl)-2H-pyrazolo[3,4-d]pyrimidin-4-amine], the IC50 in data set [1] is 7.9 nM; in data set [3], 25600 nM; in data set [4], 1420 nM; in data set [5] (SPR, human A3 receptor), 49.9 µM. This compound also came in with an EC50 in data set [2] of 11 nM. In data set [3], the “Relative selectivity for A2a v. A2b” value was 3200. The “Relative selectivity for A2a v. A1” value in data set [4] is on record as 180. Further, the “Relative selectivity for A2a v. A3” value in data set [5] was determined as 6300.
Turning to `Cc1cccc(Cn2cc3c(N)nc(-c4cnccn4)nc3n2)c1` [Example 27, 2-[(3-methylphenyl)methyl]-6-(pyrazin-2-yl)-2H-pyrazolo[3,4-d]pyrimidin-4-amine], in data set [1], the IC50 came out at 3.2 nM. Further, the EC50 in data set [2] is 7 nM. In data set [6], the solubility is greater than 50 µg/mL.
For the compound `Nc1nc(-c2ccsn2)nc2nn(Cc3cccc(Cl)c3)cc12` [Example 35, 2-[(3-chlorophenyl)methyl]-6-(1,2-thiazol-3-yl)-2H-pyrazolo[3,4-d]pyrimidin-4-amine], the IC50 stood at 4.2 nM in data set [1]; 530 nM in data set [3]; 290 nM in data set [4]; 4.7 µM in data set [5] (SPR, human A3 receptor). For the same compound, in data set [2], it took 60 nM to reach a half-maximal effect (EC50). Further, in data set [3], the “Relative selectivity for A2a v. A2b” value was determined as 130. Also, in data set [4], the “Relative selectivity for A2a v. A1” value is listed as 69. Also, the “Relative selectivity for A2a v. A3” value in data set [5] was found to be 1100. The compound also displayed a solubility in data set [6] greater than 10 µg/mL.
With `COc1ccccc1Cn1cc2c(N)nc(-c3cnccn3)nc2n1` [Example 37, 2-[(2-methoxyphenyl)methyl]-6-(pyrazin-2-yl)-2H-pyrazolo[3,4-d]pyrimidin-4-amine], in data set [1], the IC50 was 2.7 nM. For the same compound, it took 82 nM to reach a half-maximal effect in data set [2] (EC50). This compound also gave a solubility in data set [6] greater than 10 µg/mL.
On to `COc1ccccc1Cn1cc2c(N)nc(-c3ccsn3)nc2n1` [Example 38, 2-[(2-methoxyphenyl)methyl]-6-(1,2-thiazol-3-yl)-2H-pyrazolo[3,4-d]pyrimidin-4-amine], for which the IC50 was 4.3 nM in data set [1]; 11700 nM in data set [3]; 3400 nM in data set [4]; 44.3 µM in data set [5] (SPR, human A3 receptor). This compound gave an EC50 in data set [2] of 13 nM. For the same compound, the “Relative selectivity for A2a v. A2b” value in data set [3] came to 2700. In addition, in data set [4], the “Relative selectivity for A2a v. A1” value turned out to be 790. The “Relative selectivity for A2a v. A3” value in data set [5] is reported as 10000.
As to `COc1ccccc1Cn1cc2c(N)nc(-c3cnco3)nc2n1` [Example 40, 2-[(2-methoxyphenyl)methyl]-6-(1,3-oxazol-5-yl)-2H-pyrazolo[3,4-d]pyrimidin-4-amine], the IC50 in data set [1] amounted to 2 nM; in data set [3], 1460 nM; in data set [4], 990 nM; in data set [5] (SPR, human A3 receptor), 46.2 µM. In data set [2], the EC50 came out at 13 nM. The “Relative selectivity for A2a v. A2b” value in data set [3] amounted to 730. The “Relative selectivity for A2a v. A1” value in data set [4] was 500. For the same compound, the “Relative selectivity for A2a v. A3” value in data set [5] is on record as 23000.
`COc1ccc(Cn2cc3c(N)nc(-c4cnccn4)nc3n2)cc1OC` [Example 41, 2-[(3,4-dimethoxyphenyl)methyl]-6-(pyrazin-2-yl)-2H-pyrazolo[3,4-d]pyrimidin-4-amine] returned an IC50 in data set [1] of 589 nM. Further, in data set [6], the solubility is greater than 50 µg/mL.
`Nc1nc(-c2ccsn2)nc2nn(Cc3ccccc3O)cc12` [Example 44, 2-{[4-amino-6-(1,2-thiazol-3-yl)-2H-pyrazolo[3,4-d]pyrimidin-2-yl]methyl}phenol] displayed an IC50 in data set [1] of 15 nM. Further, in data set [2], a half-maximal effect (EC50) was put at 127 nM. Further, in data set [6], the solubility is greater than 50 µg/mL.
